Test results from paper PMC6811436, “Epithelial Lining Fluid and Plasma Concentrations of Dalbavancin in Healthy Adults after a Single 1,500-Milligram Infusion” (Antimicrobial Agents and Chemotherapy, 2019).
Like-named read-outs stand apart in the source and are kept apart here.

What was measured:
[1] = Plasma pharmacokinetics after a single 1,500-mg i.v. dalbavancin infusion, phase 1 study; details: for Dalbavancin concn, calculated unbound plasma (median): 1,500 mg i.v.
Experimental: (§1) A phase 1 open-label, single-dose, safety, tolerability, and PK study of ELF and plasma concentrations of dalbavancin was conducted between May and June 2015 at the SOUSEIKAI Hakata Clinic in Fukuoka, Japan. The study was approved by the local institutional review board at the site. Thirty-seven healthy, nonsmoking Japanese adult subjects received a 1,500-mg dose of dalbavancin infused for 30 ± 2 min. Thirty-five subjects (5 enrolled in each of 7 cohorts) had bronchoscopy with bronchial microsampling of ELF using a microsampling probe (BC-401C; Olympus, Tokyo, Japan), as described previously ([9]), at one of seven time points from the start of dalbavancin infusion (4, 8, 12, 24, 72, 120, and 168 h). Topical lidocaine viscous was used for gargling; 4% lidocaine liquid by aerosol spray was then used for topical anesthesia in the larynx, followed by bronchoscopy, with additional 1% or 2% lidocaine applied to the vocal cords and lower airway as needed. Sedation was allowed per local standard of care. In the BMS procedure, microsampling catheter sponge probes were inserted carefully through a fiberoptic bronchoscope into the peripheral airways of the right lower lobe, with the inner probe gently in contact with the bronchial lumen for 15 s. Three unique probe samples were obtained from each subject for a specific time point. The tips of the probe samples were cut at 3 cm from the tip of each probe, and each time point sample consisted of three probes placed in a vial for analysis. Ten blood PK samples were collected into K2EDTA vacutainers from all 37 subjects up to 168 h postdose (0.5, 1, 2, 4, 8, 12, 24, 72, 120, and 168 h), and plasma was harvested for sample bioanalysis.
(§2) The dalbavancin ELF and plasma concentrations were measured using a validated liquid chromatography-tandem mass spectrometry (LC-MS/MS) method in each matrix ([14]). The bioanalytical methods were validated at Tandem Labs (West Trenton, NJ) under sponsor oversight. (Covance is the brand of Covance, Inc., and used by Tandem Labs, Inc., and NWT, Inc., wholly owned subsidiaries of Laboratory Corporation of America Holdings.) Because ELF can only be collected via invasive techniques, validation of the method in ELF was conducted in a surrogate matrix of human serum ultrafiltrate (HUF).
(§3) The plasma LC-MS/MS method was validated on an API 4000 (Sciex, Framingham, MA) using plasma protein precipitation for sample cleanup before injection for detection of the analytes of interest. Detection was carried out using positive-mode electrospray with selected reaction monitoring for the mass spectrometer operation mode. In plasma, the calibration range was validated from 0.500 to 500 μg/ml using 50 μl plasma for each analysis, with a lower limit of quantification (LLOQ) of 0.500 μg/ml. The ELF LC-MS/MS method was validated on an API 5000 (Sciex) using dilution for sample preparation before analysis. For ELF, the calibration range was validated from 0.010 to 2.00 μg/ml using 75 μl sample volume (study sample[s] consisted of ELF; and standards, blanks, and quality controls consisted of HUF in extraction solvent of 40:60 acetonitrile:water), with an LLOQ of 0.010 μg/ml. Detection was carried out using positive-mode electrospray with selected reaction monitoring for the mass spectrometer operation mode. A structural analog of dalbavancin, diethylamide of dalbavancin, was used as an internal standard in both methods in support of quantitation of dalbavancin.
(§4) Statistical analyses of safety parameters were performed using version 9.3 of SAS (SAS Institute, Inc., Cary, NC) on a LINUX operating system. Noncompartmental PK parameters based on plasma and ELF dalbavancin concentrations were determined for individual subjects, and descriptive statistics were performed using the software program Phoenix WinNonlin (version 6.2; Pharsight Corporation, Cary, NC). Plasma concentrations below the LLOQ were treated as 0 for all PK calculations.

[2] = Epithelial lining fluid (ELF) concentrations by bronchial microsampling after a single 1,500-mg infusion; details: for Dalbavancin concn, ELF (median) / Dalbavancin concn, ELF (mean [SD]): 1,500 mg i.v., LC-MS/MS
Experimental: as §1, §2, §3, §4

[3] = Safety and tolerability in the phase 1 study; assay type: in vivo, human; details: 37 subjects; 1,500 mg i.v. single dose
From the text: Key inclusion criteria were age between 20 and 55 years and body mass index (BMI) between 18 and 30 kg/m^2. […] Subjects were assigned to cohorts on a first-come, first-served basis. Safety data were collected at each visit (screening [days −28 to −3], baseline [days −3 to −1], and days 1, 2, 4, 6, and 8 to 9) and included adverse events, physical examination, chemistry and hematology assessments (screening/baseline, day 8 to 9), and chest X ray (at screening, to exclude subjects with lung disease, and on the day after BMS sampling).

[4] = test system: S. pneumoniae; details: in vivo, iv
[5] = test system: S. aureus; details: in vivo, iv
[6] = previously established, cited from earlier work
Experimental: The bioanalysis was conducted to meet current regulated bioanalysis requirements. The sensitivity, accuracy, precision, recovery, carryover, and matrix effect were established, and study samples were analyzed within established appropriate stabilities to cover sample collection, storage, and analysis. Dalbavancin plasma sample stability has previously been established for 368 days at −20 °C and for 56 days at −70°C. Stability of dalbavancin in HUF was established for 46 days at −70 °C. Plasma (370 samples) and ELF (35 samples; samples for each ELF time point collected on 3 BMS probes and analy ...

[7] = cited from earlier work
[8] = cited from earlier work; remark: listed apart in the source
Experimental: This study evaluated the PK of dalbavancin in ELF and plasma up to 7 days after a single 1,500-mg i.v. infusion in healthy Japanese subjects. Dalbavancin was detectable in bronchial ELF at the earliest time point (4 h postdose) and sustained for ≥7 days, exceeding the MIC90s of S. pneumoniae and S. aureus. While drug exposure at the site of infection is essential for antibacterial activity, the PK/PD parameter associated with efficacy for dalbavancin is AUC/MIC ([3]).

[9] = test system: S. aureus; set-up: method as in earlier work; details: cited from earlier work
From the text: (§5) Dalbavancin is 93% protein bound in plasma ([1]), and the pharmacokinetic/pharmacodynamic (PK/PD) parameter best associated with efficacy is area under the concentratio ...

[10] = test system: S. pneumoniae; set-up: method as in earlier work; details: cited from earlier work
From the text: as §5

[11] = test system: MRSA; details: one patient switched from vancomycin to dalbavancin 1,500 mg; cited from earlier work
From the text: (§6) Dalbavancin has been used off label for treatment of MRSA pneumonia in a patient treated with vancomycin who ...

[12] = test system: S. pneumoniae; details: single dose; immunocompetent and neutropenic rats; penicillin-susceptible and penicillin-resistant S. pneumoniae; cited from earlier work
From the text: as §6

[13] = test system: penicillin-resistant S. pneumoniae; details: single dose, rats with lobar pneumonia; cited from earlier work
From the text: as §6

[14] = cited from earlier work; remark: listed apart in the source
From the text: as §5

[15] = 1,500 mg i.v. single dose, bronchial microsampling
[16] = 8 h, bronchial microsampling, 5 subjects
[17] = 12 h, bronchial microsampling, 5 subjects
[18] = 24 h, bronchial microsampling, 5 subjects
[19] = 72 h, bronchial microsampling, 5 subjects
[20] = 120 h, bronchial microsampling, 5 subjects
[21] = 8 healthy subjects, 1,500 mg dalbavancin, ref Allergan, data on file

CN[C@H]1C(=O)N[C@@H]2Cc3ccc(cc3)Oc3cc4cc(c3O[C@@H]3O[C@H](C(=O)O)[C@@H](O)[C@H](O)[C@H]3NC(=O)CCCCCCCCC(C)C)Oc3ccc(cc3Cl)[C@@H](O)[C@@H]3NC(=O)[C@H](NC(=O)[C@@H]4NC(=O)[C@@H](NC2=O)c2cc(cc(O)c2Cl)Oc2cc1ccc2O)c1ccc(O)c(c1)-c1c(O[C@H]2O[C@H](CO)[C@@H](O)[C@H](O)[C@@H]2O)cc(O)cc1[C@@H](C(=O)NCCCN(C)C)NC3=O [Dalbavancin]
plasma AUC0–168, mean (SD) ([1]; 1,500 mg i.v. single dose, noncompartmental): 21,087 (2,282) μg · h/ml | Dalbavancin concn, calculated unbound plasma (median) ([1]; 4 h, calculated with 93% protein binding (unbound fraction 7%)): 20 µg/mL | Dalbavancin concn, calculated unbound plasma (median) ([1]; 8 h, calculated with unbound fraction 7%): 16 µg/mL | Dalbavancin concn, calculated unbound plasma (median) ([1]; 12 h, calculated with unbound fraction 7%): 14 µg/mL | Dalbavancin concn, calculated unbound plasma (median) ([1]; 24 h, calculated with unbound fraction 7%): 12 µg/mL | Dalbavancin concn, calculated unbound plasma (median) ([1]; 72 h, calculated with unbound fraction 7%): 8 µg/mL | Dalbavancin concn, calculated unbound plasma (median) ([1]; 120 h, calculated with unbound fraction 7%): 7 µg/mL | Dalbavancin concn, calculated unbound plasma (median) ([1]; 168 h, calculated with unbound fraction 7%): 6 µg/mL | Tmax ([1]; human, in vivo, iv): 30 min | clearance ([1]; human, in vivo, iv): 0.683 mL/min | level at 0.5 h ([1]; human, in vivo, iv, 1500 mg): 442 µg/mL | level at 1 h ([1]; human, in vivo, iv, 1500 mg): 397 µg/mL | level at 2 h ([1]; human, in vivo, iv, 1500 mg): 331 µg/mL | level at 8 h ([1]; human, in vivo, iv, 1500 mg): 222 µg/mL | level at 12 h ([1]; human, in vivo, iv, 1500 mg): 194 µg/mL | level at 24 h ([1]; human, in vivo, iv, 1500 mg): 169 µg/mL | level at 72 h ([1]; human, in vivo, iv, 1500 mg): 120 µg/mL | level at 120 h ([1]; human, in vivo, iv, 1500 mg): 94 µg/mL | ELF AUC0–168 (median) [2, 15]: 527 µg·h/mL | ELF Cmax (median) [2, 15]: 4 µg/mL | ELF Tmax (median) [2, 15]: 72 h | Dalbavancin concn, ELF (median) ([2]; 4 h, bronchial microsampling, 5 subjects per time point): 1.9 µg/mL | Dalbavancin concn, ELF (mean [SD]) ([2]; 4 h, bronchial microsampling, 5 subjects): 1.9 (1.0) μg/ml | Dalbavancin concn, ELF (mean [SD]) [2, 16]: 3.1 (1.9) μg/ml | Dalbavancin concn, ELF (median) [2, 16]: 2.2 µg/mL | Dalbavancin concn, ELF (mean [SD]) [2, 17]: 3.6 (2.1) μg/ml | Dalbavancin concn, ELF (median) [2, 17]: 2.8 µg/mL | Dalbavancin concn, ELF (mean [SD]) [2, 18]: 2.7 (0.5) μg/ml | Dalbavancin concn, ELF (median) [2, 18]: 2.6 µg/mL | Dalbavancin concn, ELF (mean [SD]) [2, 19]: 7.3 (8.2) μg/ml | Dalbavancin concn, ELF (median) [2, 19]: 4.2 µg/mL | Dalbavancin concn, ELF (mean [SD]) [2, 20]: 11.9 (20.1) μg/ml | Dalbavancin concn, ELF (median) [2, 20]: 3.3 µg/mL | Dalbavancin concn, ELF (median) ([2]; 168 h (7 days), bronchial microsampling, 5 subjects): 2.1 µg/mL | Dalbavancin concn, ELF (mean [SD]) ([2]; 168 h, bronchial microsampling, 5 subjects): 2.0 (0.6) μg/ml | penetration of dalbavancin into ELF ([2]; ratio of AUC in ELF to unbound AUC in plasma (7% of AUC0–168)): 36% | clinical laboratory parameters [3]: no observed safety concerns in clinical laboratory parameters | serious AEs [3]: no serious AEs | severity of treatment-emergent AEs [3]: all were mild | subjects with at least one treatment-emergent adverse event (AE) [3]: Five | treatment-emergent AEs leading to withdrawal from study-drug therapy [3]: no treatment-emergent AEs leading to withdrawal from study-drug therapy | time ELF levels exceeded the MIC90 of S. pneumoniae [4]: ≥ 7 days | time ELF levels exceeded the MIC90 of S. aureus [5]: ≥ 7 days | plasma sample stability established for ([6]; −20 °C): 368 days | plasma sample stability established for ([6]; −70°C): 56 days | solubility in saline [7]: not soluble in saline | plasma AUC0–24, mean (SD) [8, 21]: 5,202.55 (620.05) μg · h/ml | plasma Cmax, mean (SD) [8, 21]: 467.63 (55.73) μg/ml | mean Tmax ([8]; 8 healthy subjects, 1,500 mg, range 0.5 to 0.5, ref Allergan, data on file): 30 min | median Tmax ([8]; 49 subjects, 1,500 mg dalbavancin): 37.2 min | effect of surfactant on in vitro activity [9]: does not appear to be appreciably affected by the presence of surfactant | effect of surfactant on in vitro activity [10]: does not appear to be appreciably affected by the presence of surfactant | MRSA in sputum cultures [11]: subsequent clearance of MRSA in sputum cultures | bacterial counts in the lungs [12]: reduction of bacterial counts observed in the lungs | lung bacterial load [13]: significant reduction in the lung bacterial load | protein bound in plasma [14]: 93% | terminal half-life [14]: 14.4 days | time plasma concentrations maintained above the MIC90 for most Gram-positive pathogens, including S. aureus ([14]; single dose of 1,500 mg i.v.): at least 2 weeks
